We go through 81 compounds from PubChem BioAssay AID977621 (Broad Institute, 2014).

The subject of the assay is E. coli wild-type GFP strain growth, fluorescence, 24 h. In words: growth inhibition of wild-type GFP E. coli, dose response, H69 mutant RFP, cherry-pick (AID 977621).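 Further: wild-type GFP and H69 mutant RFP strains grown together 50/50 in each well.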
Setting [1] is: E. coli mixed culture, 24 h, measured here: total growth OD600, test 2.

The term AC50 denotes the concentration giving half of the maximal activity seen.

Inconclusive results are not listed. Activity calls are given as the source filed them.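 How the source made its calls: active means Wild-type ribosome reporter drop at least double the humanized mutant ribosome reporter drop, growth loss under a set limit; inconclusive means no clear call, values can overlap the other calls; inactive means the rest.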

In the case of `COc1ccc(OC)c(-c2csc(NC(=O)C3COc4ccccc4O3)n2)c1` (centres undefined), the AC50 under setting [1] was > 100 µM.

`CCc1cc2cc(OC)ccc2nc1SCC(=O)Nc1cc(OC)c(OC)cc1C(=O)O`: under setting [1], the concentration at half-maximal activity (AC50) is > 100 µM.

As to `CN(Cc1ccccc1)C(=O)c1[nH]cnc1C(=O)NCc1ccccc1`, the AC50 is > 100 µM (inactive). Moreover, the concentration at half-maximal activity (AC50) under setting [1] was > 100 µM.

For `CCOc1ccccc1N(CC(=O)Nc1ccccc1F)S(=O)(=O)c1ccccc1`, the AC50 was > 100 µM (inactive). Further, under setting [1], the AC50 stood at 15.6 µM.

Take `Cc1cc(C(=O)Nc2cccc3c2O[C@H](CN(C)S(=O)(=O)c2ccc(Cl)cc2)[C@H](C)CN([C@H](C)CO)C3=O)n(C)n1`: the AC50 is > 100 µM (inactive).

As for `Cc1ccc(C2NC(=O)c3[nH]nc(-c4ccccc4)c32)cc1` (centres undefined), the AC50 is > 100 µM (inactive). Besides, the AC50 under setting [1] was 42.3 µM.

With `COc1cc2[nH]c(=S)nc(NCCc3ccc(C)cc3)c2cc1OC`, the AC50 was > 100 µM (inactive).

Take `Cc1cc(NC(=O)COC(=O)CSCc2ccc(Cl)c(Cl)c2)no1`: the AC50 was > 100 µM (inactive). The half-maximal activity concentration (AC50) under setting [1] was > 100 µM.

With `CSc1ccccc1OCc1cc(C(=O)N[C@H]2CCCCNC2=O)no1`, the AC50 is > 100 µM (inactive).

For the compound `CCOC(=O)c1cc2sccc2n1CCCN1C(=O)c2ccccc2C1=O`, the AC50 is > 100 µM (inactive). Further, the concentration at half-maximal activity (AC50) under setting [1] was > 100 µM.

As to `O=C(COC(=O)C1CC2C=CC1C2)NCCc1ccccc1` (centres undefined), the AC50 under setting [1] is > 100 µM.

Consider `COc1ccc(CC(=O)NC(C)c2ccc3ccccc3c2)cc1` (centres undefined), for which the AC50 is > 100 µM (inactive).

As for `O=C(COC(=O)C1CC1)Nc1nc(-c2ccc(F)c(F)c2)cs1`, the concentration at half-maximal activity (AC50) under setting [1] is > 100 µM.

On to `CCOCC(=O)Nc1c(C(=O)Nc2ccc3c(c2)OCCO3)oc2ccccc12`, for which the AC50 was > 100 µM (inactive).

Turning to `Cc1nn(-c2ccccc2)c(C)c1CN(C)C(=O)c1ccc(S(=O)(=O)NCc2ccco2)cc1`, the AC50 was > 100 µM (inactive).

As to `Cc1ccc(NC(=O)c2ccc(CSc3ccccn3)cc2)c(O)c1`, the AC50 is > 100 µM (inactive). The compound further displayed a concentration at half-maximal activity (AC50) under setting [1] of 20.9 µM.

With `COc1ccc(CNc2ncnc3cc(OC)c(OC)cc23)cc1OC`, the AC50 was > 100 µM (inactive).

`CCOC(=O)c1c(C)nsc1NCc1ccccc1`: under setting [1], the AC50 is > 100 µM.

Take `N#Cc1ccsc1NC(=O)CSc1nnnn1-c1ccc(O)cc1`: the AC50 was > 100 µM (inactive).

As to `O=C1OC[C@@H]2CCCN2C(=O)[C@@H](CC(=O)N(CCO)Cc2ccccc2)C/C=C\C[C@H]1Cc1ccc(F)cc1`, under setting [1], the AC50 is > 100 µM.

Consider `COc1ccc(C)c2sc(N(CCN(C)C)C(=O)c3ccc(S(=O)(=O)N(C)c4ccccc4)cc3)nc12`, for which the AC50 was > 100 µM (inactive).

Regarding `CCn1nc(Cc2cccc3ccccc23)c(C#N)c1N`, the AC50 is > 100 µM (inactive).

On to `COc1ccc(NC(=O)c2sccc2-n2cccc2)cc1`, for which the AC50 was > 100 µM (inactive).

Regarding `CCCn1c(C(C)Nc2nc(-c3ccc(C)cc3)cs2)nc2ccccc21` (centres undefined), under setting [1], the concentration at half-maximal activity (AC50) was > 100 µM.

Regarding `Cc1cc(CNC(=O)COc2ccc(C)c(C)c2)c2ccccc2n1`, the AC50 was > 100 µM (inactive).

Turning to `Cc1nn2c(NCc3ccccn3)cc(C(C)C)nc2c1-c1ccccc1`, the AC50 was > 100 µM (inactive).

`Cc1ccc(C)c(N(CC(=O)NC2CCCC2)C(=O)c2oc(C(C)(C)C)cc2C)c1`: the AC50 is > 100 µM (inactive). Also, the AC50 under setting [1] was > 100 µM.

Take `CCOC(=O)c1cnc2c(cnn2C)c1NCc1ccc(OC)cc1`: the AC50 was > 100 µM (inactive). For the same compound, the AC50 under setting [1] was > 100 µM.

As to `CCOc1ccc(NC(=O)CN(C)CC(=O)Nc2ccc(Br)cc2F)cc1OCC`, the AC50 is > 100 µM (inactive). The AC50 under setting [1] was > 100 µM.

As to `CN(C)S(=O)(=O)N1CCN(c2ccccc2Cl)CC1`, the half-maximal activity concentration (AC50) under setting [1] is > 100 µM.

As to `O=C(Cc1cccc2ccccc12)Nc1ccccc1C(=O)O`, the AC50 under setting [1] is 50.2 µM.

With `O=C(C[C@H]1CC[C@@H]2[C@H](COC[C@@H](O)CN2C(=O)Nc2cc(Cl)cc(Cl)c2)O1)N1CCOCC1`, the AC50 is > 100 µM (inactive).

With `C=CCn1c(-c2cc3cccc(OC)c3o2)n[nH]c1=S`, the AC50 was > 100 µM (inactive).

As for `CCCNC(=O)c1cc(C2CCCN(S(=O)(=O)c3cccc4cccnc34)C2)on1` (centres undefined), the AC50 was > 100 µM (inactive).

Take `N#Cc1ccc(OCC(=O)N2CCN(S(=O)(=O)c3ccc(Cl)s3)CC2)cc1`: the AC50 was > 100 µM (inactive).

Turning to `Cc1ccc(C(=O)NCC(=O)OCC(=O)Nc2cccc(S(=O)(=O)N3CCCC3)c2)cc1C`, the AC50 under setting [1] is > 100 µM.

For the compound `O=c1[nH]nc(SCc2ccccc2)n1C1CC2C=CC1C2` (centres undefined), under setting [1], the AC50 is 40.6 µM.

As to `CCc1cccc(NC(=O)CCC(=O)N2CCSc3ccccc32)c1`, the AC50 is > 100 µM (inactive). Also, under setting [1], the AC50 amounted to 47.6 µM.

On to `CC(=O)Nc1ccc(-c2ccnc3c2CC(C)(C(=O)Nc2ccc4c(c2)OCO4)O3)cc1` (centres undefined), for which, under setting [1], the concentration at half-maximal activity (AC50) is > 100 µM.

On to `CCCN(CC1CC1)C(=O)CSc1ncnc2sccc12`, for which the AC50 was > 100 µM (inactive).

Regarding `COc1ccc(OC)c(NC(=O)COc2ccc(S(=O)(=O)NC(C)C)cc2)c1`, the AC50 under setting [1] was > 100 µM.

With `COc1ccc(NC(=O)Nc2cccc3c2O[C@H](CN(C)S(=O)(=O)c2ccc(Cl)cc2)[C@@H](C)CN([C@H](C)CO)C3=O)cc1`, the AC50 was > 100 µM (inactive).

Take `COc1ccccc1Cn1c(=S)[nH]c2ccccc2c1=O`: the AC50 is > 100 µM (inactive).

`CCOC(=O)c1nc(C)sc1-c1ccnn1S(=O)(=O)c1cccc(Cl)c1`: the AC50 was > 100 µM (inactive). The AC50 under setting [1] is 45.7 µM.

Turning to `O=C(Nc1cc(S(=O)(=O)N2CCCCC2)ccc1N1CCCCC1)C1CC1`, under setting [1], the AC50 is > 100 µM.

With `Cc1nc(-c2ccc([N+](=O)[O-])cc2)c(-c2ccccc2)o1`, the AC50 was > 100 µM (inactive).

As to `CCn1nnc(NC(=O)c2ccc([N+](=O)[O-])o2)n1`, the AC50 was > 100 µM (inactive).

For `COc1ccc(C(=O)Cn2nnc(-c3ccccc3F)n2)cc1`, the AC50 was > 100 µM (inactive). Under setting [1], this compound showed a half-maximal activity concentration (AC50) of 41.2 µM.

Take `O=C(Nc1ccn(Cc2ccc(Cl)cc2)n1)c1ccccc1`: the AC50 under setting [1] was > 100 µM.

Consider `COc1ccc(CN(C)C[C@H]2Oc3ccc(NS(=O)(=O)c4ccc(Cl)cc4)cc3CC(=O)N([C@@H](C)CO)C[C@H]2C)cc1`, for which the concentration at half-maximal activity (AC50) under setting [1] was > 100 µM.

In the case of `Cc1ccc(C(=O)OCC(=O)c2c[nH]c3ccccc23)cc1NC(=O)c1ccco1`, the AC50 was > 100 µM (inactive).

Consider `CCN(CC)CCN(C(=O)C1CCCCC1)c1nc2cc3c(cc2s1)OCO3`, for which the AC50 was > 100 µM (inactive).

On to `Cc1cc(C)c(S(=O)(=O)NCCOc2ccccc2)c(C)c1-n1cnnn1`, for which the AC50 is > 100 µM (inactive).

Consider `O=[N+]([O-])c1ccc2nc(-c3ccccc3[N+](=O)[O-])[nH]c2c1`, for which the AC50 is > 100 µM (inactive). Besides, the AC50 under setting [1] is > 100 µM.

Consider `O=C(CN1CCN(S(=O)(=O)c2ccc(Cl)cc2)CC1)Nc1ccc2c(c1)CCC2`, for which the half-maximal activity concentration (AC50) under setting [1] was > 100 µM.

As for `CC(C)=C(c1ccc(Cl)cc1)c1c(N)ncnc1N`, the AC50 was > 100 µM (inactive).

In the case of `CSc1nc2ccc(NC(=O)c3c(-c4ccccc4)noc3C)cc2s1`, the concentration at half-maximal activity (AC50) under setting [1] came to 46.5 µM.

Regarding `CCOc1ccc(NC(=O)CN2C(=O)COc3ccc(S(=O)(=O)N4CCCC4)cc32)cc1`, the AC50 was > 100 µM (inactive).

For `CC1Cc2cc(S(=O)(=O)N3CCN(c4cccc(Cl)c4)CC3)ccc2N1C(=O)C1CC1` (centres undefined), under setting [1], the half-maximal activity concentration (AC50) is > 100 µM.

The compound `CC(C)Sc1sc(C(=O)O)c(-c2ccc(Cl)cc2)c1C#N` registered an AC50 under setting [1] of 32.7 µM.

For `CN1CCN(c2nc(Nc3ccc(O)cc3)nc3ccccc23)CC1`, the AC50 is > 100 µM (inactive).

On to `C=CCn1c(CCSCc2ccc(OC)c(C)c2)n[nH]c1=S`, for which the AC50 is > 100 µM (inactive). In addition, the concentration at half-maximal activity (AC50) under setting [1] is 33.6 µM.

With `COc1cc(C(F)(F)F)c(C(=O)N(C)Cc2ccc(Cl)c(Cl)c2)cn1`, the AC50 is > 100 µM (inactive). In addition, the AC50 under setting [1] came to 44.6 µM.

As to `CCOC(=O)Cc1nnc(NC(=O)CSc2nc3ccccc3[nH]2)s1`, the AC50 is > 100 µM (inactive).

With `CCc1nnc(NS(=O)(=O)c2ccc(NC(=O)c3cc(Cl)ccc3[N+](=O)[O-])cc2)s1`, under setting [1], the half-maximal activity concentration (AC50) came out at 51.9 µM.

On to `O=C(Nc1ccc(Cl)cn1)c1ccc([N+](=O)[O-])o1`, for which the AC50 under setting [1] is > 100 µM.

`C[C@@H]1CN([C@@H](C)CO)C(=O)c2cc(NC(=O)Nc3cccc4ccccc34)ccc2O[C@@H](C)CCCCO[C@@H]1CN(C)C`: the AC50 under setting [1] was > 100 µM.

As to `CC(C)(C)c1ccc(CCC2OCC(CN3CCOCC3)O2)cc1` (centres undefined), the AC50 was > 100 µM (inactive).

With `Cc1nn(CC(=O)OCCOc2ccc(Br)cc2)c(C)c1[N+](=O)[O-]`, the AC50 under setting [1] was > 100 µM.

`CCC(C(=O)Nc1ccsc1C(=O)OC)c1ccccc1` (centres undefined): under setting [1], the AC50 turned out to be 49.2 µM.

Turning to `CCC(=O)Nc1nc2c(OC)ccc(OC)c2s1`, the AC50 under setting [1] was > 100 µM.

As to `NS(=O)(=O)c1cccc(NC(=O)CSc2nnc(-c3ccccc3F)n2C2CC2)c1`, the AC50 was > 100 µM (inactive).

Turning to `Cc1sc2ncn(CC(=O)Nc3ccccc3F)c(=O)c2c1-c1ccccc1`, the AC50 was > 100 µM (inactive).

`Cc1ccc(C#N)c(SCc2ccccc2F)n1`: the AC50 was > 100 µM (inactive). Also, under setting [1], the AC50 amounted to 34.2 µM.

In the case of `O=C1CC(=O)N(Cc2ccccc2)C(=O)N1CCCCCCN1C(=O)CC(=O)N(Cc2ccccc2)C1=O`, the AC50 (measured here: total growth OD600, test 2) is > 100 µM.

`CC(NCc1ccc(S(N)(=O)=O)cc1)C(=O)Nc1cc([N+](=O)[O-])ccc1Cl` (centres undefined): the AC50 was > 100 µM (inactive).

In the case of `Cc1ccc(OCCn2c(=S)[nH]c3c(N)ncnc32)cc1`, the AC50 is > 100 µM (inactive). Besides, the AC50 under setting [1] came to 31.8 µM.

As to `COc1ccc(OC)c(NC(=O)COC(=O)C2CCN(C(=O)c3ccc(Cl)cc3)CC2)c1`, the concentration at half-maximal activity (AC50) under setting [1] is > 100 µM.

Turning to `O=C(COC(=O)CCSc1ccc(F)cc1)NCc1ccc(F)cc1`, the AC50 was > 100 µM (inactive).

Turning to `CCn1nc(C(=O)OCc2cccc(S(=O)(=O)N(C)C)c2)c2ccccc2c1=O`, the AC50 was > 100 µM (inactive). Also, the half-maximal activity concentration (AC50) under setting [1] was > 100 µM.

Turning to `O=C1c2ccccc2C(c2nnnn2Cc2ccccc2)N1CCc1ccc(O)cc1` (centres undefined), the AC50 was > 100 µM (inactive).
